Results reported in patent US10329249B1, “Sulindac derivatives” (KING SAUD UNIVERSITY, priority 2018, dated 2019).

Experiments:
[1] = DPPH free radical scavenging (antioxidant activity); conditions: 100 μg/mL compound in 3 mL 0.004% DPPH, 520 nm after 30 min; mean of three replicates ±SD
Procedure: The antioxidant activity was measured based on the scavenging activity of the stable DPPH free radical. 100 μg/mL of the twenty-five sulindac derivative compounds were added to 3 mL 0.004% DPPH solution. Methanol was added to 3 mL 0.004% DPPH solution for the control sample. Absorbance was determined at 520 nm after 30 min. Butylated hydroxytoluene (BHT) was used as a reference drug. The percent inhibition was calculated by the equation:
[formula] where At is the absorbance of the compound and A0 is the absorbance of the control.

SMILES	Scavenging Effect [1] [%]	melting point [°C]
Cc1cc(C(C)(C)C)c(O)c(C(C)(C)C)c1 [BHT, Butylated hydroxytoluene, reference compound]	90.6 ± 3.83	–
CC1=C(CC(=O)N/N=C\c2ccccc2[N+](=O)[O-])c2cc(F)ccc2/C1=C\c1ccc([S+](C)[O-])cc1 (stereo not drawn) [Compound 1, N′-(2-nitrobenzylidene)-2-((1Z)-1-(4-(methylsulfinyl)benzylidene)-5-fluoro-2-methyl-1H-inden-3-yl)acetohydrazide]	18.53 ± 4.86	148 to 150
CC1=C(CC(=O)N/N=C\c2ccc([N+](=O)[O-])cc2)c2cc(F)ccc2/C1=C\c1ccc([S+](C)[O-])cc1 (stereo not drawn) [Compound 2, N′-(4-nitrobenzylidene)-2-((1Z)-1-(4-(methylsulfinyl)benzylidene)-5-fluoro-2-methyl-1H-inden-3-yl)acetohydrazide]	19.26 ± 5.32	220 to 222
CC1=C(CC(=O)N/N=C\c2ccccc2)c2cc(F)ccc2/C1=C\c1ccc([S+](C)[O-])cc1 (stereo not drawn) [Compound 3]	67.40 ± 9.25	138 to 140
CC1=C(CC(=O)N/N=C\c2ccc(Cl)cc2)c2cc(F)ccc2/C1=C\c1ccc([S+](C)[O-])cc1 (stereo not drawn) [Compound 4, N′-(4-chlorobenzylidene)-2-((1Z)-1-(4-(methylsulfinyl)benzylidene)-5-fluoro-2-methyl-1H-inden-3-yl)acetohydrazide]	39.86 ± 10.80	228 to 230
CC1=C(CC(=O)N/N=C\c2cccc(O)c2)c2cc(F)ccc2/C1=C\c1ccc([S+](C)[O-])cc1 (stereo not drawn) [Compound 5]	42.20 ± 13.20	–
COc1cccc(/C=N\NC(=O)CC2=C(C)/C(=C/c3ccc([S+](C)[O-])cc3)c3ccc(F)cc32)c1 (stereo not drawn) [Compound 6]	71.03 ± 5.31	–
CC1=C(CC(=O)N/N=C\c2cccc([N+](=O)[O-])c2)c2cc(F)ccc2/C1=C\c1ccc([S+](C)[O-])cc1 (stereo not drawn) [Compound 7]	49.36 ± 5.57	165 to 167
COc1cc(OC)c(OC)cc1/C=N\NC(=O)CC1=C(C)/C(=C/c2ccc([S+](C)[O-])cc2)c2ccc(F)cc21 (stereo not drawn) [Compound 9]	78.97 ± 9.36	233 to 235
COc1cc(/C=N\NC(=O)CC2=C(C)/C(=C/c3ccc([S+](C)[O-])cc3)c3ccc(F)cc32)cc(OC)c1OC (stereo not drawn) [Compound 10, N′-(3,4,5-trimethoxybenzylidene)-2-((1Z)-1-(4-(methylsulfinyl)benzylidene)-5-fluoro-2-methyl-1H-inden-3-yl)acetohydrazide]	42.33 ± 18.38	165 to 167
CC1=C(CC(=O)N/N=C\c2ccc(O)cc2)c2cc(F)ccc2/C1=C\c1ccc([S+](C)[O-])cc1 (stereo not drawn) [Compound 11, N′-(4-hydroxybenzylidene)-2-((1Z)-1-(4-(methylsulfinyl)benzylidene)-5-fluoro-2-methyl-1H-inden-3-yl)acetohydrazide]	45.06 ± 22.57	–
COc1ccccc1/C=N\NC(=O)CC1=C(C)/C(=C/c2ccc([S+](C)[O-])cc2)c2ccc(F)cc21 (stereo not drawn) [Compound 12, N′-(2-methoxybenzylidene)-2-((1Z)-1-(4-(methylsulfinyl)benzylidene)-5-fluoro-2-methyl-1H-inden-3-yl) acetohydrazide]	39.73 ± 15.65	–
COc1ccc(/C=N\NC(=O)CC2=C(C)/C(=C/c3ccc([S+](C)[O-])cc3)c3ccc(F)cc32)c(OC)c1 (stereo not drawn) [Compound 13, N′-(2,4-dimethoxybenzylidene)-2-((1Z)-1-(4-(methylsulfinyl)benzylidene)-5-fluoro-2-methyl-1H-inden-3-yl)acetohydrazide]	23.07 ± 6.95	185 to 187
COc1cccc(/C=N\NC(=O)CC2=C(C)/C(=C/c3ccc([S+](C)[O-])cc3)c3ccc(F)cc32)c1OC (stereo not drawn) [Compound 14, N′-(2,3-dimethoxybenzylidene)-2-((1Z)-1-(4-(methylsulfinyl)benzylidene)-5-fluoro-2-methyl-1H-inden-3-yl)acetohydrazide]	62.93 ± 6.72	203 to 205
COc1ccc(/C=N\NC(=O)CC2=C(C)/C(=C/c3ccc([S+](C)[O-])cc3)c3ccc(F)cc32)cc1OC (stereo not drawn) [Compound 15, N′-(3,4-dimethoxybenzylidene)-2-((1Z)-1-(4-(methylsulfinyl)benzylidene)-5-fluoro-2-methyl-1H-inden-3-yl)acetohydrazide]	40.60 ± 14.40	230 to 232
COc1cc(OC)c(/C=N\NC(=O)CC2=C(C)/C(=C/c3ccc([S+](C)[O-])cc3)c3ccc(F)cc32)c(OC)c1 (stereo not drawn) [Compound 16, N′-(2,4,6-timethoxybenzylidene)-2-((1Z)-1-(4-(methylsulfinyl)benzylidene)-5-fluoro-2-methyl-1H-inden-3-yl)acetohydrazide]	30.80 ± 2.50	193 to 195
COc1ccc(/C=N\NC(=O)CC2=C(C)/C(=C/c3ccc([S+](C)[O-])cc3)c3ccc(F)cc32)c(OC)c1OC (stereo not drawn) [Compound 17, N′-(2,3,4-timethoxybenzylidene)-2-((1Z)-1-(4-(methylsulfinyl)benzylidene)-5-fluoro-2-methyl-1H-inden-3-yl)acetohydrazide]	63.56 ± 0.47	185 to 187
CCOc1ccc(/C=N\NC(=O)CC2=C(C)/C(=C/c3ccc([S+](C)[O-])cc3)c3ccc(F)cc32)cc1OC (stereo not drawn) [Compound 18, N′-(3-methoxy-4-ethoxybenzylidene)-2-((1Z)-1-(4-(methylsulfinyl)benzylidene)-5-fluoro-2-methyl-1H-inden-3-yl)acetohydrazide]	–	158 to 160
COc1cc(/C=N\NC(=O)CC2=C(C)/C(=C/c3ccc([S+](C)[O-])cc3)c3ccc(F)cc32)cc(OC)c1O (stereo not drawn) [Compound 19, N′-(3,5-dimethoxy-4-hydroxybenzylidene)-2-((1Z)-1-(4-(methylsulfinyl)benzylidene)-5-fluoro-2-methyl-1H-inden-3-yl)acetohydrazide]	–	218 to 220
CCOc1cc(/C=N\NC(=O)CC2=C(C)/C(=C/c3ccc([S+](C)[O-])cc3)c3ccc(F)cc32)ccc1O (stereo not drawn) [Compound 20, N′-(3-ethoxy-4-hydroxybenzylidene)-2-((1Z)-1-(4-(methylsulfinyl)benzylidene)-5-fluoro-2-methyl-1H-inden-3-yl)acetohydrazide]	35.50 ± 9.05	193 to 195
CC1=C(CC(=O)N/N=C\c2cc(O)ccc2O)c2cc(F)ccc2/C1=C\c1ccc([S+](C)[O-])cc1 (stereo not drawn) [Compound 21, N′-(2,5-dihydroxybenzylidene)-2-((1Z)-1-(4-(methylsulfinyl)benzylidene)-5-fluoro-2-methyl-1H-inden-3-yl)acetohydrazide]	38.10 ± 10.92	180 to 182
COc1ccc(/C=N\NC(=O)CC2=C(C)/C(=C/c3ccc([S+](C)[O-])cc3)c3ccc(F)cc32)cc1O (stereo not drawn) [Compound 22, N′-(3-hydroxy-4-methoxybenzylidene)-2-((1Z)-1-(4-(methylsulfinyl)benzylidene)-5-fluoro-2-methyl-1H-inden-3-yl)acetohydrazide]	51.40 ± 16.66	208 to 210
CC1=C(CC(=O)N/N=C\c2cccc(O)c2O)c2cc(F)ccc2/C1=C\c1ccc([S+](C)[O-])cc1 (stereo not drawn) [Compound 23, N′-(2,3-dihydroxybenzylidene)-2-((1Z)-1-(4-(methylsulfinyl)benzylidene)-5-fluoro-2-methyl-1H-inden-3-yl)acetohydrazide]	33.10 ± 8.41	–
COc1cccc(/C=N\NC(=O)CC2=C(C)/C(=C/c3ccc([S+](C)[O-])cc3)c3ccc(F)cc32)c1O (stereo not drawn) [Compound 24]	27.66 ± 2.12	210 to 212
CC1=C(CC(=O)N/N=C\c2ccc(O)c(O)c2O)c2cc(F)ccc2/C1=C\c1ccc([S+](C)[O-])cc1 (stereo not drawn) [Compound 25, N′-(2,3,4-trihydroxybenzylidene)-2-((1Z)-1-(4-(methylsulfinyl)benzylidene)-5-fluoro-2-methyl-1H-inden-3-yl)acetohydrazide]	30.06 ± 3.30	195 to 197
